Values of other authors in patent US20150104527A1, “AQUEOUS IONIC SOLUTION CONTAINING SEAWATER AND AT LEAST ONE COMPOUND THAT IS ORIGINALLY IMMISCIBLE WITH SEA WATER” (LABORATOIRE DE LA MER, priority 2011, published 2015).

Assays:
nasal mucus membrane = details: observed in patients even for short use; Graf P et al, 1999
human neutrophiles = details: even at low concentration; Boston et al, 2003

effect on the nasal mucus membrane (nasal mucus membrane): deleterious effects
Substance: benzalkonium chloride
toxicity for human neutrophiles (human neutrophiles): toxic
